# Test results taken from US11590116B2 (THERAVANCE BIOPHARMA R&D IP, LLC, priority 2019, dated 2023).
# Like-named read-outs stand apart in the source and are kept apart here.
# Assays:
# [1] = target: T1, recombinant human ALK5 (TGF-βR1) protein (Homo sapiens, UniProt P36897); assay: Biochemical ALK5 (TGF-βR1) assay to measure pKi (LANCE Ultra ULight kinase assay); conditions: apparent pKi from pIC50 by Cheng-Prusoff, read-out: ALK5 pKi (converted)
# T1 construct: purchased Life Technologies PR9075A
# T1 sequence (P36897 34-503): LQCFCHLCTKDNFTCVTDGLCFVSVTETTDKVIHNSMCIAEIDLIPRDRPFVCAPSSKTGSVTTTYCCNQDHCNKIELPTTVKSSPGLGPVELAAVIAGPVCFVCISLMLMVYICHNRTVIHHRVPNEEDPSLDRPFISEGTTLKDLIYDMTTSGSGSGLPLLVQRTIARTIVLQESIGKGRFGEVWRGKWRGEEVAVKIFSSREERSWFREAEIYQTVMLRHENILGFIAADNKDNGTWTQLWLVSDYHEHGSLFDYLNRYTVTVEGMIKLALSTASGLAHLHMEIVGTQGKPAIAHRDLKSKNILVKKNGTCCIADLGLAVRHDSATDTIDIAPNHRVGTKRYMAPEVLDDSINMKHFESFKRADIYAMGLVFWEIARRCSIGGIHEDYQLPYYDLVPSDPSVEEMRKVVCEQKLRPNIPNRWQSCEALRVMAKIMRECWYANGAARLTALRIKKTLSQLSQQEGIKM
# In short: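 Compounds (10 μM to 25 pM) were preincubated 60 min at room temperature with enzyme, then reactions were started with ATP (125 μM stock, 5× final) and run 60 min at 37 °C. EDTA-containing Eu-anti-phospho-Topo IIα (Thr1342) antibody stopped the reaction; TR-FRET read at 665 nm. pIC50 from 4-parameter fit, converted to pKi via Cheng-Prusoff.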
# [2] = system: TGF-β-stimulated SMAD3 phosphorylation in BEAS-2B cells; assay: Cellular ALK5 potency assay, inhibition of TGF-β stimulated pSMAD3 formation in BEAS-2B cells; type: cell-based; conditions: Homo sapiens, read-out: BEAS2B pIC50 (converted)
# In short: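 SMAD3 phosphorylation was measured by AlphaLISA after 30 min TGF-β stimulation (10 ng/mL final) of BEAS-2B cells preincubated 1 h with compound at 37 °C. Results given as pIC50.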
# [3] = inhibition of TGF-β stimulated pSMAD3 formation, BEAS-2B cells
Structure (SMILES),Ki [1],"IC50 [2, 3]",IC50 ([2]; BEAS-2B)
"COc1cnc2ccc(-c3c[nH]nc3-c3cccc(C)n3)nc2c1 [Compound 321, 7-methoxy-2-[3-(6-methyl-2-pyridyl)-1H-pyrazol-4-yl]-1,5-naphthyridine]",< 0.0316 nM,< 20 nM,–
"COC(=O)CC1CN(CCNc2cnc3ccc(-c4nc[nH]c4-c4cccc(C)n4)cc3c2)CCN1 (centres unmarked) [Compound 322, methyl 2-[4-[2-[[6-[5-(6-methyl-2-pyridyl)-1H-imidazol-4-yl]-3-quinolyl]amino]ethyl]piperazin-2-yl]acetate]",0.0398 to 0.316 nM,200 to 1260 nM,–
"Cc1cccc(-c2n[nH]cc2-c2ccc3ncc(Br)cc3n2)n1 [Compound 323, 7-bromo-2-[3-(6-methyl-2-pyridyl)-1H-pyrazol-4-yl]-1,5-naphthyridine]",0.0398 to 0.316 nM,< 20 nM,–
"Cc1cccc(-c2n[nH]cc2-c2ccc3ncc(CNCCN4CCN(C(C)C)CC4)cc3n2)n1 [Compound 324, 2-(4-isopropylpiperazin-1-yl)-N-[[6-[3-(6-methyl-2-pyridyl)-1H-pyrazol-4-yl]-1,5-naphthyridin-3-yl]methyl]ethanamine]",0.398 to 3.16 nM,25.1 to 158 nM,–
"Cc1cccc(-c2n[nH]cc2-c2ccc3ncc(-c4cn(Cc5cnc6c(c5)CNCC6)nn4)cc3n2)n1 [Compound 325, 2-[3-(6-methyl-2-pyridyl)-1H-pyrazol-4-yl]-7-[1-(5,6,7,8-tetrahydro-1,6-naphthyridin-3-ylmethyl)triazol-4-yl]-1,5-naphthyridine]",< 0.0316 nM,200 to 1260 nM,–
"Cc1cccc(-c2nc3ccccn3c2-c2ccc3ncc(N4CCC(N5CCN(C)CC5)CC4)cc3n2)n1 [Compound 326, 7-[4-(4-methylpiperazin-1-yl)-1-piperidyl]-2-[2-(6-methyl-2-pyridyl)imidazo[1,2-a]pyridin-3-yl]-1,5-naphthyridine]",0.0398 to 0.316 nM,25.1 to 158 nM,–
"CNCCn1cc(-c2cnc3ccc(-c4c(-c5cccc(C)n5)nn5c4CNCC5)cc3c2)cn1 [Compound 327, N-methyl-2-[4-[6-[2-(6-methyl-2-pyridyl)-4,5,6,7-tetrahydropyrazolo[1,5-a]pyrazin-3-yl]-3-quinolyl]pyrazol-1-yl]ethanamine]",0.0398 to 0.316 nM,200 to 1260 nM,–
"CNC1CCN(c2cnc3ccc(-c4c(-c5cccc(C)n5)[nH]c5cccnc45)nc3c2)CC1 [Compound 328, N-methyl-1-[6-[2-(6-methyl-2-pyridyl)-1H-pyrrolo[3,2-b]pyridin-3-yl]-1,5-naphthyridin-3-yl]piperidin-4-amine]",0.398 to 3.16 nM,200 to 1260 nM,–
"Cc1nc(-c2n[nH]cc2-c2ccc3ncc(-c4nc5c(s4)CNCC5)cc3n2)ccc1F [Compound 329, 2-[6-[3-(5-fluoro-6-methyl-2-pyridyl)-1H-pyrazol-4-yl]-1,5-naphthyridin-3-yl]-4,5,6,7-tetrahydrothiazolo[5,4-c]pyridine]",0.0398 to 0.316 nM,25.1 to 158 nM,–
"Cc1cccc(-c2nn3cc(Cl)ccc3c2-c2ccc3ncc(-c4cn[nH]c4)cc3n2)n1 [Compound 330, 2-[6-chloro-2-(6-methyl-2-pyridyl)pyrazolo[1,5-a]pyridin-3-yl]-7-(1H-pyrazol-4-yl)-1,5-naphthyridine]",0.0398 to 0.316 nM,25.1 to 158 nM,–
"Cc1nc(-c2n[nH]cc2-c2ccc3ncc(-c4cnc5n4CCN5)cc3n2)ccc1F [Compound 332, 7-(6,7-dihydro-5H-imidazo[1,2-a]imidazol-3-yl)-2-[3-(5-fluoro-6-methyl-2-pyridyl)-1H-pyrazol-4-yl]-1,5-naphthyridine]",< 0.0316 nM,25.1 to 158 nM,–
"Cc1cccc(-c2n[nH]cc2-c2ccc3ncc(-c4cnc(N)s4)cc3n2)n1 [Compound 333, 5-[6-[3-(6-methyl-2-pyridyl)-1H-pyrazol-4-yl]-1,5-naphthyridin-3-yl]thiazol-2-amine]",0.0398 to 0.316 nM,25.1 to 158 nM,–
"Cc1nc(-c2n[nH]cc2-c2ccc3ncc(N4CCC(N)C4)cc3n2)ccc1F (centres unmarked) [Compound 334, 1-[6-[3-(5-fluoro-6-methyl-2-pyridyl)-1H-pyrazol-4-yl]-1,5-naphthyridin-3-yl]pyrrolidin-3-amine]",0.0398 to 0.316 nM,25.1 to 158 nM,–
"Cc1cccc(-c2n[nH]cc2-c2ccc3ncc(N4CCC(N5CCCC5)CC4)cc3n2)n1 [Compound 335, 2-(3-(6-methylpyridin-2-yl)-1H-pyrazol-4-yl)-7-(4-(pyrrolidin-1-yl)piperidin-1-yl)-1,5-naphthyridine]",< 0.0316 nM,25.1 to 158 nM,–
"Cc1cccc(-c2n[nH]cc2-c2ccc3ncc(N4CCC(N5CCCC5)C4)cc3n2)n1 (centres unmarked) [Compound 336, 2-[3-(6-methyl-2-pyridyl)-1H-pyrazol-4-yl]-7-(3-pyrrolidin-1-ylpyrrolidin-1-yl)-1,5-naphthyridine]",< 0.0316 nM,25.1 to 158 nM,–
"Cc1cccc(-c2[nH]ncc2-c2ccc3ncc(C(=O)NC4CCNCC4)cc3n2)n1 [Compound 337, 6-[5-(6-methyl-2-pyridyl)-1H-pyrazol-4-yl]-N-(4-piperidyl)-1,5-naphthyridine-3-carboxamide]",0.0398 to 0.316 nM,200 to 1260 nM,–
"Cc1cccc(-c2[nH]cnc2-c2ccc3ncc(Nc4nc5n(n4)CCNC5)cc3c2)n1 [Compound 338, 6-(5-(6-methylpyridin-2-yl)-1H-imidazol-4-yl)-N-(5,6,7,8-tetrahydro-[1,2,4]triazolo[1,5-a]pyrazin-2-yl)quinolin-3-amine]",0.0398 to 0.316 nM,–,200 to 1260 nM
"Cc1cccc(-c2[nH]nnc2-c2ccc3ncc(N4CCCNCC4)cc3c2)n1 [Compound 339, 3-(1,4-diazepan-1-yl)-6-[5-(6-methyl-2-pyridyl)-1H-triazol-4-yl]quinoline]",0.398 to 3.16 nM,200 to 1260 nM,–
"Cc1cccc(-c2n[nH]cc2-c2ccc3ncc(-c4cn(CCN5CCOCC5)nn4)cc3n2)n1 [Compound 340, 4-[2-[4-[6-[3-(6-methyl-2-pyridyl)-1H-pyrazol-4-yl]-1,5-naphthyridin-3-yl]triazol-1-yl]ethyl]morpholine]",0.0398 to 0.316 nM,25.1 to 158 nM,–
"Cc1cccc(-c2n[nH]cc2-c2ccc3ncc(-c4ccnc(C(C)(C)C#N)c4)cc3n2)n1 [Compound 341, 2-methyl-2-[4-[6-[3-(6-methyl-2-pyridyl)-1H-pyrazol-4-yl]-1,5-naphthyridin-3-yl]-2-pyridyl]propanenitrile]",< 0.0316 nM,< 20 nM,–
"CNCc1cncc(-c2cnc3ccc(-c4nc[nH]c4-c4cccc(C)n4)cc3c2)c1 [Compound 342, N-methyl-1-[5-[6-[5-(6-methyl-2-pyridyl)-1H-imidazol-4-yl]-3-quinolyl]-3-pyridyl]methanamine]",0.0398 to 0.316 nM,25.1 to 158 nM,–
"Cc1cccc(-c2n[nH]cc2-c2ccc3ncc(-c4nnn5c4CNCC5)cc3c2)n1 [Compound 343, 6-[3-(6-methyl-2-pyridyl)-1H-pyrazol-4-yl]-3-(4,5,6,7-tetrahydrotriazolo[1,5-a]pyrazin-3-yl)quinoline]",0.0398 to 0.316 nM,25.1 to 158 nM,–
"Cc1cccc(-c2[nH]cnc2-c2ccc3ncc(N4CCN(C)C(CC(=O)O[C@@H]5CCNC5)C4)cc3c2)n1 (stereo partly drawn) [Compound 344, [(3R)-pyrrolidin-3-yl]2-[1-methyl-4-[6-[5-(6-methyl-2-pyridyl)-1H-imidazol-4-yl]-3-quinolyl]piperazin-2-yl]acetate]",0.0398 to 0.316 nM,200 to 1260 nM,–
"Cc1cccc(-c2n[nH]cc2-c2ccc3ncc(-c4ccc(=O)n(C)c4)cc3n2)n1 [Compound 345, 1-methyl-5-[6-[3-(6-methyl-2-pyridyl)-1H-pyrazol-4-yl]-1,5-naphthyridin-3-yl]pyridin-2-one]",< 0.0316 nM,< 20 nM,–
"Cc1cccc(-c2[nH]nnc2-c2ccc3ncc(N4CCC(N5CCN(C)CC5)CC4)cc3c2)n1 [Compound 346, 3-[4-(4-methylpiperazin-1-yl)-1-piperidyl]-6-[5-(6-methyl-2-pyridyl)-1H-triazol-4-yl]quinoline]",0.0398 to 0.316 nM,25.1 to 158 nM,–
"CCc1cccc(-c2n[nH]cc2-c2ccc3ncc(N4CCC(N(C)C)CC4)cc3n2)n1 [Compound 348, 1-[6-[3-(6-ethyl-2-pyridyl)-1H-pyrazol-4-yl]-1,5-naphthyridin-3-yl]-N,N-dimethyl-piperidin-4-amine]",< 0.0316 nM,25.1 to 158 nM,–
"Cc1cccc(-c2n[nH]cc2-c2ccc3ncc(N4CCCNCC4)cc3n2)n1 [Compound 349, 7-(1,4-diazepan-1-yl)-2-[3-(6-methyl-2-pyridyl)-1H-pyrazol-4-yl]-1,5-naphthyridine]",0.0398 to 0.316 nM,25.1 to 158 nM,–
"Cc1cccc(-c2c(-c3ccc4ncc(NCCN5CCN(C(C)C)CC5)cc4c3)nnn2Cc2ccccc2)n1 [Compound 351, 6-[1-benzyl-5-(6-methyl-2-pyridyl)triazol-4-yl]-N-[2-(4-isopropylpiperazin-1-yl)ethyl]quinolin-3-amine]",3.98 to 31.6 nM,200 to 1260 nM,–
